# Assay results reported in patent US6610665B1 (Smithkline Beecham Corporation, priority 1998, dated 2003).
# Structures can show the parent of a compound that is named as a salt.
# How the values were obtained:
# Assay type in all cases: cell-based
# Details in all cases: ratio to NECA
# adenosine 2a receptor = biological target: T1, adenosine 2a receptor (Homo sapiens, UniProt P29274); assay: Agonist activity, CHO cells transfected with human adenosine receptor and CRE-SPAP reporter; basal cAMP (A2a)
# T1 construct: expressed in transfected cells; host or cells: CHO cells
# Protocol: (§1) (1) Agonist activity against adenosine 2a, adenosine 1 and adenosine 3 receptor subtypes.
# (§2) Agonist selectivity of compounds against other human adenosine receptors is determined using Chinese hamster ovary (CHO) cells transfected with the gene for the relevant human adenosine receptor following a method based on that of Castanon and Spevak, 1994. The CHO cells are also transfected with cyclic AMP response elements promoting the gene for secreted placental alkaline phosphatase (SPAP) (Wood, 1995). The effect of test compounds may be determined by their effects on basal levels of CAMP (A2a) or on forskolin-enhanced cAMP (A1 and A3) as reflected by changes in levels of SPAP. EC50 values for compounds may then be determined as a ratio to that of the non-selective agonist N-ethyl carboxamide adenosine (NECA).
# adenosine 1 receptor = biological target: T2, adenosine 1 receptor (Homo sapiens, UniProt P30542); assay: Agonist activity, CHO cells transfected with human adenosine receptor and CRE-SPAP reporter; forskolin-enhanced cAMP (A1)
# T2 construct: expressed in transfected cells; host or cells: CHO cells
# T2 sequence (P30542 1-326): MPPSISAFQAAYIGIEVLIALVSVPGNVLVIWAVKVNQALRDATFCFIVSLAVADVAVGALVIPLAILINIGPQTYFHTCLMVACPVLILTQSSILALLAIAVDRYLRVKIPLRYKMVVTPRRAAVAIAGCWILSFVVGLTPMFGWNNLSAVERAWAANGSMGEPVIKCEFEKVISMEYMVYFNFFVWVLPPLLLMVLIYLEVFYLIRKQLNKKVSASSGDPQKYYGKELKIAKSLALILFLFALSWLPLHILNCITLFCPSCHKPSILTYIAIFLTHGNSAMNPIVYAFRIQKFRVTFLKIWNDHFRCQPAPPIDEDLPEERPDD
# Protocol: as §1, §2
# adenosine 3 receptor = biological target: T3, adenosine 3 receptor (Homo sapiens, UniProt P0DMS8); assay: Agonist activity, CHO cells transfected with human adenosine receptor and CRE-SPAP reporter; forskolin-enhanced cAMP (A3)
# T3 construct: expressed in transfected cells; host or cells: CHO cells
# T3 sequence (P0DMS8 1-318): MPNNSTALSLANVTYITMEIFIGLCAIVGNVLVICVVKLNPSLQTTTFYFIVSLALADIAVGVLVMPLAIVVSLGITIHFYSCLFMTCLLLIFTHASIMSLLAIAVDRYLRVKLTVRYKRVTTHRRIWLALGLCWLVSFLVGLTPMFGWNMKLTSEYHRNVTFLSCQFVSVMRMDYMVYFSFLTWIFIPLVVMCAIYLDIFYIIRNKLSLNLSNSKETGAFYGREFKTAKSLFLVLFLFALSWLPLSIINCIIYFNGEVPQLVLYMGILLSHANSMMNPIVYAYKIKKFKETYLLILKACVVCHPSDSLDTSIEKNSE
# Protocol: as §1, §2
# [1] = * data are minimum values since preparation was found, after testing, to contain an inactive impurity
# [2] = ** data on retested purified compound
# T1 sequence (P29274 whole entry): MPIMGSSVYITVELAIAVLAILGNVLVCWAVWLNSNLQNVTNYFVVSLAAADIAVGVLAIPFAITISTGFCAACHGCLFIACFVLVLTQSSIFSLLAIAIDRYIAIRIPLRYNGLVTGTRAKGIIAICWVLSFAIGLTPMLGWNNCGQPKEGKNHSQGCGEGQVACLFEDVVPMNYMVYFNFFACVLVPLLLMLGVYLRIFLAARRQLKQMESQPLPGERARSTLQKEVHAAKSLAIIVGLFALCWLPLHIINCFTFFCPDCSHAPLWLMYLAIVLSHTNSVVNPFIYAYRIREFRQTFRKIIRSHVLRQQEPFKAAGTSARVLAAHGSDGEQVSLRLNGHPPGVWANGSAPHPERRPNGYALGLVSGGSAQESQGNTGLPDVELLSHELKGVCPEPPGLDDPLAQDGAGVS
Compound,"A2a, EC50 as a ratio of that of NECA (adenosine 2a receptor; CHO cells, SPAP readout)","A1, EC50 as a ratio of that of NECA (adenosine 1 receptor; CHO cells, SPAP readout)","A3, EC50 as a ratio of that of NECA (adenosine 3 receptor; CHO cells, SPAP readout)","A2a, EC50 as a ratio of that of NECA (adenosine 2a receptor; [1])","A2a, EC50 as a ratio of that of NECA (adenosine 2a receptor; [2])","A1, EC50 as a ratio of that of NECA (adenosine 1 receptor; [1])","A1, EC50 as a ratio of that of NECA (adenosine 1 receptor; [2])","A3, EC50 as a ratio of that of NECA (adenosine 3 receptor; [1])","A3, EC50 as a ratio of that of NECA (adenosine 3 receptor; [2])"
"CCc1noc([C@H]2O[C@@H](n3cnc4c(NCC(c5ccccc5)c5ccccc5)nc(NC5CC6CCC5C6)nc43)[C@H](O)[C@@H]2O)n1.O=CO (stereo partly drawn) [Example 41, (2R,3R,4S,5S)-2-{2-(Bicyclo[2.2.1]hept-2-ylamino)-6-(2,2-diphenyl-ethylamino)-purin-9-yl}-5-(3-ethyl-[1,2,4]oxadiazol-5-yl)-tetrahydro-furan-3,4-diol formate]",23.93,2033.2,>130,–,–,–,–,–,–
"CCc1noc(C2OC(n3cnc4c(N)nc(NC(CO)Cc5ccccc5)nc43)C(O)C2O)n1 [Example 9, (2R,3R,4S,5S)-2-[6-Amino-2-(1S-hydroxymethyl-2-phenyl-ethylamino)-purin-9-yl]-5-(3-ethyl-[1,2,4oxadiazol-5-yl)-tetrahydro-furan-3,4-diol formate]",–,–,–,0.81,0.086,1692.4,3006,>231,>287
"CCc1noc([C@H]2O[C@@H](n3cnc4c(NCC(c5ccccc5)c5ccccc5)nc(Nc5ccc(F)cc5)nc43)[C@H](O)[C@@H]2O)n1.O=CO [Example 44, (2R,3R,4S,5S)-2-[6-(2,2-Diphenyl-ethylamino)-2-(4-fluoro-phenylamino)-purin-9-yl]-5-(3-ethyl-[1,2,4]oxadiazol-5-yl)-tetrahydro-furan-3,4-diol formate]",94.39,>6131,>165,–,–,–,–,–,–
CCc1noc([C@H]2O[C@@H](n3cnc4c(NCC(c5ccccc5)c5ccccc5)nc(NCCNc5ccccn5)nc43)[C@H](O)[C@@H]2O)n1.O=CO.O=CO [Example 40],4.89,>=3311.7,>130,–,–,–,–,–,–
"CCc1noc([C@H]2O[C@@H](n3cnc4c(NC(CC)CC)nc(NC5CCCC5)nc43)[C@H](O)[C@@H]2O)n1.O=CO [Example 23, (2R,3R,4S,5S)-2-[2-Cyclopentylamino-6-(1-ethyl-propylamino)-purin-9-yl]-5-(3-ethyl-[1,2,4]oxadiazol-5-yl)-tetrahydro-furan-3,4-diol formate]",12.72,17.02,>163,–,–,–,–,–,–
"(2S,3S,4R,5R)-2-(3-Cyclopropyl-[1,2,4]oxadiazol-5-yl)-5-[6-(1-ethyl-propylamino)-2-(2-(1-methyl-1H-imidazol-4-yl)-ethylamino)-purin-9-yl]-tetrahydro-furan-3,4-diol diformate [Example 38]",2.02,670.04,>87,–,–,–,–,–,–
"CCc1noc(C2OC(n3cnc4c(NC(CC)CC)nc(NC5CCNC5)nc43)C(O)C2O)n1 [Example 27, (2S,3S,4R,5R)-2-(3-Ethyl-[1,2,4]oxadiazol-5-yl)-5-[6-(1-ethyl-propylamino)-2-(pyrrolidin-3R-ylamino)-purin-9-yl]-tetrahydro-furan-3,4-diol formate]",–,–,–,10.5,–,263.14,–,>284,–
"CCc1noc([C@H]2O[C@@H](n3cnc4c(NCC(c5ccccc5)c5ccccc5)nc(NCCN5CCOCC5)nc43)[C@H](O)[C@@H]2O)n1.O=CO [Example 31, (2R,3R,4S,5S)-2-[6-(2,2-Diphenyl-ethylamino)-2-(2-morpholin-4-yl-ethylamino)-purin-9-yl]-5-(3-ethyl-[1,2,4]oxadiazol-5-yl)-tetrahydro-furan-3,4-diol formate]",30.6,6452,>262,–,–,–,–,–,–
"CCC(CC)Nc1nc(N[C@H]2CCC[C@@H]2O)nc2c1ncn2[C@@H]1O[C@H](c2nc(C)no2)[C@@H](O)[C@H]1O.O=CO [Example 24, (2R,3R,4S,5S)-2-[6-(1-Ethyl-propylamino)-2-(2S-hydroxy-cyclopent-(S)-ylamino)-purin-9-yl]-5-(3-methyl-[1,2,4]oxadiazol-5-yl)-tetrahydro-furan-3,4-diol formate]",18.13,>5264,>284,–,–,–,–,–,–
"CCc1noc(C2OC(n3cnc4c(NCC(c5ccccc5)c5ccccc5)nc(NC5CCN(Cc6ccccc6)C5)nc43)C(O)C2O)n1 [Example 45, (2R,3R,4S,5S)-2-[2-(1-Benzyl-pyrrolidin-3S-ylamino)-6-(2,2-diphenyl-ethylamino)-purin-9-yl]-5-(3-ethyl-[1,2,4]oxadiazol-5-yl)-tetrahydro-furan-3,4-diol diformate]",29.82,>3738.84,>165,–,–,–,–,–,–
CCc1noc([C@H]2O[C@@H](n3cnc4c(NCCc5ccccc5)nc(NCCc5cn(C)cn5)nc43)[C@H](O)[C@@H]2O)n1.O=CO.O=CO [Example 46],0.90,3560.13,>165,–,–,–,–,–,–
"CCc1noc([C@H]2O[C@@H](n3cnc4c(NCC(c5ccccc5)c5ccccc5)nc(NCCc5ccc(OC)c(OC)c5)nc43)[C@H](O)[C@@H]2O)n1.O=CO [Example 42, (2R,3R,4S,5S)-2-{2-(2-[3,4-Dimethoxy-phenyl]-ethylamino)-6-(2,2-diphenyl-ethylamino)-purin-9-yl}-5-(3-ethyl-[1,2,4]oxadiazol-5-yl)-tetrahydro-furan-3,4-diol formate]",32.77,>6064,>130,–,–,–,–,–,–
"CCC(CC)Nc1nc(NC(CO)C(C)C)nc2c1ncn2C1OC(c2nc(C)no2)C(O)C1O [Example 28, (2R,3R,4S,5S)-2-[6-(1-Ethyl-propylamino)-2-(1S-hydroxymethyl-2-methyl-propylamino)-purin-9-yl]-5-(3-methyl-[1,2,4]oxadiazol-5-yl)-tetrahydro-furan-3,4-diol formate]",–,–,–,5.49,–,>5263,–,>284,–
"CCc1noc([C@H]2O[C@@H](n3cnc4c(NC(CC)CC)nc(N[C@H]5CCC[C@@H]5O)nc43)[C@H](O)[C@@H]2O)n1.O=CO [Example 25, (2S,3S,4R,5R)-2-(3-Ethyl-[1,2,4]oxadiazol-5-yl)-5-[6-(1-ethyl-propylamino)-2-(2S-hydroxy-cyclopent-(S)-ylamino)-purin-9-yl]-tetrahydro-furan-3,4-diol formate]",19.35,515.35,>163,–,–,–,–,–,–
